The record followed here is ChEMBL document CHEMBL1201862, “PubChem BioAssay data set” (2004).

Some test systems named below: UO-31; U-251; CAKI-1; NCI-H23; MDA-N; HCT-15; KM12; M14; BT-549; SF-539; Malme-3M; OVCAR-4; NCI-H460; ACHN; OVCAR-5; SNB-19; HCC 2998; HL-60; HOP-92.
Assay in all cases: growth of human tumour cells (NCI), 48 h

SMILES strings stand for the structures.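 In this assay, cells in 96-well plates receive the compound at five concentrations for 48 hours. Endpoints are linearly interpolated between the surrounding concentrations. GI50 marks 50% less growth.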 The source made the active and inactive calls. Cut-off read from the data, not from the text of the source: active = GI50 up to about 1.1 µM and inactive = higher.

For `Cc1cc2nnn(C3CCCCO3)c2cc1C` (configuration not stated), the GI50 in the assay with UO-31 is 98.2 µM (inactive); in the assay on U-251, > 100 µM (inactive); in the assay on CAKI-1 it was > 100 µM (inactive); in the assay on NCI-H23 it was > 100 µM (inactive); with MDA-N, > 100 µM (inactive); with HCT-15, greater than 100 µM. Moreover, the GI50 with KM12, in the assay with M14, with BT-549, in the assay with SF-539, in the assay on Malme-3M and in the assay with OVCAR-4 was > 100 µM (inactive) in each case. The GI50 with NCI-H460, in the assay on ACHN, in the assay on OVCAR-5, in the assay with SNB-19 and in the assay on HCC 2998 was > 100 µM (inactive) each time.
As to `COC1=C(OC)C(=O)C(Cc2c(C)nc3sc(C)cn23)=C(C)C1=O`, the GI50 with UO-31 is 16.8 µM (inactive); with U-251, 19.8 µM (inactive); with CAKI-1 it was 20.4 µM (inactive); in the assay with NCI-H23, 15 µM (inactive); in the assay with MDA-N it was 18 µM (inactive); with HCT-15, 26.1 µM. In addition, the GI50 is 26.3 µM (inactive) with KM12; 17 µM (inactive) in the assay on M14; 16.9 µM (inactive) in the assay on BT-549; 17.4 µM (inactive) in the assay with SF-539; 14.9 µM (inactive) in the assay with Malme-3M; 10.9 µM (inactive) in the assay with OVCAR-4. Besides, the GI50 in the assay on NCI-H460 was 20 µM (inactive); in the assay on HL-60, 11.6 µM (inactive); with ACHN it was 15.1 µM (inactive); in the assay with OVCAR-5, 22.2 µM (inactive); in the assay with SNB-19, 19 µM (inactive); in the assay with HCC 2998, 29 µM (inactive).
Turning to `COc1ccc2c(c1)OC1c3ccccc3OCC21` (configuration not stated), the GI50 with UO-31 is 48.9 µM (inactive); in the assay on U-251, > 100 µM (inactive); in the assay with CAKI-1 it was > 100 µM (inactive); in the assay with NCI-H23, 61.4 µM (inactive); in the assay on MDA-N, 36.6 µM (inactive); in the assay on HCT-15, 62.7 µM. Also, the GI50 in the assay with KM12 was 28.4 µM (inactive); in the assay on M14 it was 93.5 µM (inactive); with BT-549 it was 59.7 µM (inactive); with SF-539 it was > 100 µM (inactive); with OVCAR-4 it was > 100 µM (inactive); in the assay on NCI-H460 it was 61.9 µM (inactive). Further, the GI50 in the assay on HL-60 is 34.6 µM (inactive); in the assay on ACHN it was > 100 µM (inactive); in the assay on OVCAR-5, > 100 µM (inactive); in the assay on SNB-19, 93.3 µM (inactive); with HCC 2998, 39.9 µM (inactive); with HOP-92, 61.8 µM (inactive).
On to `CCOC(=O)c1c(Sc2ccc([N+](=O)[O-])cc2[N+](=O)[O-])nc2c3ccccc3ccn12`, for which the GI50 in the assay with UO-31 is > 41.9 µM (inactive); with U-251, 31.8 µM (inactive); in the assay on CAKI-1 it was 15.6 µM (inactive); in the assay with NCI-H23, > 91 µM (inactive); in the assay on MDA-N it was > 100 µM (inactive); with HCT-15, greater than 100 µM. The GI50 in the assay with KM12 is > 100 µM (inactive); in the assay on M14, > 100 µM (inactive); in the assay with BT-549, > 75.2 µM (inactive); in the assay on SF-539, 15 µM (inactive); with OVCAR-4 it was 10.7 µM (inactive); with NCI-H460 it was > 55.7 µM (inactive). Further, the GI50 with HL-60 was 11.5 µM (inactive); in the assay with ACHN, 19.3 µM (inactive); in the assay with OVCAR-5, > 100 µM (inactive); with SNB-19 it was > 68.1 µM (inactive); with HCC 2998, > 28.6 µM (inactive); in the assay with HOP-92, 13.9 µM (inactive).
For `CC(C)=CCC/C(C)=C/CC/C(C)=C/CSc1ccccc1C(=O)O` [SALIRASIB], the GI50 in the assay with UO-31 was > 10 µM (inactive); with U-251, 20.2 µM (inactive); in the assay with CAKI-1, 22.1 µM (inactive); with NCI-H23, 18.2 µM (inactive); with MDA-N, 22.3 µM (inactive); in the assay with HCT-15, 14.7 µM. For the same compound, the GI50 in the assay with KM12 is 17.6 µM (inactive); with M14, 20.4 µM (inactive); in the assay on BT-549 it was 16.7 µM (inactive); in the assay with SF-539 it was 17.5 µM (inactive); in the assay with OVCAR-4, 36.9 µM (inactive); in the assay with NCI-H460, 17.4 µM (inactive). In addition, the GI50 is 29.7 µM (inactive) with HL-60; 37.7 µM (inactive) in the assay with ACHN; 19.2 µM (inactive) in the assay on OVCAR-5; 21 µM (inactive) in the assay with SNB-19; 18 µM (inactive) with HCC 2998; 25.9 µM (inactive) in the assay on HOP-92.
On to `C=C1C(=O)OC2/C=C(/C)C(OC(C)=O)C/C=C(\C)C(OC(=O)C3(C)OC3C)C(O)C12` (configuration not stated), for which the GI50 in the assay on U-251 was > 100 µM (inactive); in the assay on CAKI-1, 65.8 µM (inactive); in the assay on NCI-H23, > 100 µM (inactive); in the assay with MDA-N, > 100 µM (inactive); with HCT-15 it was 53.3 µM; in the assay with KM12 it was > 100 µM (inactive). The GI50 in the assay with M14 is > 100 µM (inactive); in the assay with BT-549, 65.6 µM (inactive); in the assay with SF-539, > 100 µM (inactive); in the assay with OVCAR-4, > 100 µM (inactive); with NCI-H460, > 100 µM (inactive); in the assay on HL-60, 30.3 µM (inactive). In addition, the GI50 in the assay with ACHN, with OVCAR-5, in the assay with SNB-19, with HCC 2998 and with HOP-92 was > 100 µM (inactive) in each case.
On to `N#Cc1c(N)nc2c(c1-c1ccc(Br)cc1)CSc1ccccc1-2`, for which the GI50 in the assay with UO-31 was 33.8 µM (inactive); in the assay on U-251, 34.4 µM (inactive); in the assay with CAKI-1 it was 14.9 µM (inactive); in the assay on NCI-H23, 29.6 µM (inactive); in the assay with MDA-N, 49.4 µM (inactive); in the assay with HCT-15, 25.6 µM. Also, the GI50 in the assay on KM12 is 56 µM (inactive); in the assay on M14, 41.7 µM (inactive); in the assay with BT-549, > 100 µM (inactive); in the assay with SF-539 it was 35 µM (inactive); in the assay with Malme-3M it was > 100 µM (inactive); with OVCAR-4, 24.6 µM (inactive). For the same compound, the GI50 in the assay on NCI-H460 is 25.8 µM (inactive); in the assay on HL-60, 33.7 µM (inactive); with SNB-19, 39.7 µM (inactive); with HOP-92, 9.02 µM (inactive).
Take `CC(=O)OCC1OC(n2c3c(c(-c4ccc(C)cc4)c(C#N)c2=S)C(=O)CC(C)(C)C3)C(OC(C)=O)C(OC(C)=O)C1OC(C)=O` (configuration not stated): the GI50 was 58.5 µM (inactive) with UO-31; 30.3 µM (inactive) in the assay on U-251; 52.5 µM (inactive) in the assay with CAKI-1; 42.8 µM (inactive) with NCI-H23; 15.7 µM (inactive) in the assay with MDA-N; 36.4 µM (inactive) with KM12. Further, the GI50 with M14 is 35.5 µM (inactive); in the assay with BT-549, 19.3 µM (inactive); with SF-539, 23.3 µM (inactive); in the assay on Malme-3M, > 100 µM (inactive); in the assay with OVCAR-4 it was > 10 µM (inactive); in the assay on NCI-H460, 42.2 µM (inactive). The GI50 in the assay with HL-60 is 23.5 µM (inactive); in the assay on ACHN, 39 µM (inactive); with OVCAR-5, > 100 µM (inactive); in the assay with SNB-19 it was > 100 µM (inactive); with HOP-92 it was 45.5 µM (inactive).
As to `CCNC(C)(C)C(SS)c1ccc(Br)cc1` (configuration not stated), the GI50 with UO-31 was 79.1 µM (inactive); in the assay with U-251 it was 44.3 µM (inactive); in the assay with CAKI-1 it was 78 µM (inactive); in the assay on NCI-H23, > 100 µM (inactive); with MDA-N, 45.6 µM (inactive); with HCT-15 it was greater than 100 µM. For the same compound, the GI50 is > 100 µM (inactive) with KM12; 59.2 µM (inactive) in the assay on M14; > 100 µM (inactive) in the assay on BT-549; 38 µM (inactive) with SF-539; > 100 µM (inactive) with Malme-3M; 44.5 µM (inactive) with OVCAR-4. Besides, the GI50 in the assay on NCI-H460 was 31.1 µM (inactive); in the assay with HL-60, 21.9 µM (inactive); in the assay with ACHN, > 100 µM (inactive); in the assay on OVCAR-5, > 100 µM (inactive); in the assay on SNB-19, > 100 µM (inactive); in the assay on HOP-92, > 100 µM (inactive).
`Cc1cc(N(CCC#N)CCC#N)ccc1C(/N=N/c1ccccc1)=N\NC(=O)c1cc(Cl)ccc1O`: the GI50 in the assay with UO-31 was 14.8 µM (inactive); in the assay with U-251, 33.1 µM (inactive); with CAKI-1, 46.8 µM (inactive); in the assay on NCI-H23 it was 13.1 µM (inactive); in the assay with MDA-N, 32.6 µM (inactive); with HCT-15, 18.4 µM. Further, the GI50 in the assay with KM12 was 26.1 µM (inactive); in the assay with M14, 26.4 µM (inactive); with BT-549 it was 18.2 µM (inactive); with SF-539 it was 20.5 µM (inactive); with Malme-3M, 27.9 µM (inactive); in the assay with OVCAR-4, 20.7 µM (inactive). Besides, the GI50 in the assay with NCI-H460 was 24.5 µM (inactive); in the assay with HL-60 it was 37.9 µM (inactive); in the assay on ACHN, 15.8 µM (inactive); in the assay with OVCAR-5, > 10 µM (inactive); in the assay with SNB-19 it was 49 µM (inactive); in the assay with HCC 2998, 15.8 µM (inactive).
For the compound `CCOC(=O)c1cc(-c2ccn(C(C)=O)c2)c(-c2cc(C)co2)[nH]1`, the GI50 in the assay with UO-31 is > 100 µM (inactive); in the assay on U-251, > 100 µM (inactive); in the assay with CAKI-1 it was > 100 µM (inactive); in the assay with NCI-H23, > 100 µM (inactive); with MDA-N, > 100 µM (inactive); in the assay on HCT-15, greater than 100 µM. Further, the GI50 with KM12, in the assay on M14, in the assay on BT-549, in the assay with Malme-3M, in the assay with OVCAR-4 and with NCI-H460 was > 100 µM (inactive) throughout. In addition, the GI50 in the assay with HL-60, in the assay with ACHN, in the assay on OVCAR-5, with SNB-19 and in the assay with HCC 2998 was > 100 µM (inactive) in each case.
On to `N[C@@H](CCC(=O)NCP(=O)(O)O)C(=O)O`, for which the GI50 was > 100 µM (inactive) with UO-31; > 100 µM (inactive) in the assay with U-251; > 100 µM (inactive) with NCI-H23; > 100 µM (inactive) in the assay on MDA-N; greater than 100 µM in the assay with HCT-15; > 100 µM (inactive) with KM12. For the same compound, the GI50 with BT-549, with SF-539, in the assay with Malme-3M, in the assay with NCI-H460, with HL-60 and in the assay with ACHN was > 100 µM (inactive) each time. In addition, the GI50 in the assay on OVCAR-5, with SNB-19 and in the assay with HCC 2998 was > 100 µM (inactive) each time.
